Active and inactive are the calls of the source.

In one assay the target is Proto-oncogene tyrosine-protein kinase Src (Homo sapiens) (UniProt P12931). The assay can be described thus: Percent inhibition against human recombinant p60 c-Src tyrosine kinase at 500 uM.
Sequence of Proto-oncogene tyrosine-protein kinase Src (Homo sapiens) (P12931 2-536 limits assumed): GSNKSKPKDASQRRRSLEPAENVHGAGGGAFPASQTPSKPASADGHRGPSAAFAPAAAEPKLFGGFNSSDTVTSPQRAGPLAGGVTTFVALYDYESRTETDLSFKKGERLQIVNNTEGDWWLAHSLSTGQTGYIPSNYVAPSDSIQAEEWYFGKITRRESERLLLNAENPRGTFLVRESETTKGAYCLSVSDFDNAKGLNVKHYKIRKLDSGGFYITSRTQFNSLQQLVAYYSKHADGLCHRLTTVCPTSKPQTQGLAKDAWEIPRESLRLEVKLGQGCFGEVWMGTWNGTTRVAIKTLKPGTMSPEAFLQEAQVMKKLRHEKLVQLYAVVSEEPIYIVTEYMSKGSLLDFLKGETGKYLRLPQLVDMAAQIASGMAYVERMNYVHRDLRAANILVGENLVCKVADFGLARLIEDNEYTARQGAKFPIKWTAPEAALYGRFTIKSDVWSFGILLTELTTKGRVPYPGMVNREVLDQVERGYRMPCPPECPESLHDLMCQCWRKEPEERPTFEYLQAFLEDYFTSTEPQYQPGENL
In general, inhibition refers to the relative decrease from the control value, in per cent. Turning to `COC(=O)c1cc2cc(O)ccc2[nH]1`, the inhibition was 40%.

Another assay has the same target. The assay can be described thus: Percent inhibition determined against human recombinant p60 c-Src tyrosine kinase at 100 uM.
In the case of `O=C(Nc1ccccc1O)c1cc2cc(O)ccc2[nH]1`, the inhibition is 43%. Consider `C[C@H](NC(=O)c1cc2cc(O)ccc2[nH]1)c1cccc(O)c1`, for which the inhibition stood at 13%. In the case of `COc1ccccc1NC(=O)c1cc2cc(O)ccc2[nH]1`, the inhibition is 3%. On to `O=C(NCc1ccccc1O)c1cc2cc(O)ccc2[nH]1`, for which the inhibition came to 24%. Regarding `O=C(NCc1cccc(O)c1)c1cc2cc(O)ccc2[nH]1`, the inhibition was found to be 74%.

Regarding `CCOC(=O)c1cc2cc(O)c(O)cc2[nH]1`, the inhibition worked out at 28%.

`O=C(Nc1ccc(O)cc1)c1cc2cc(O)ccc2[nH]1`: the inhibition was 45%. Consider `O=C(NCc1ccc(O)cc1)c1cc2ccccc2[nH]1`, for which the inhibition came out at 36%.

Take `O=C(O)Cc1ccc(NC(=O)c2cc3cc(O)ccc3[nH]2)cc1`: the inhibition was determined as 7%.

Turning to `COc1cccc(NC(=O)c2cc3cc(O)ccc3[nH]2)c1`, the inhibition worked out at 21%. For the compound `COc1ccc(CNC(=O)c2cc3cc(O)ccc3[nH]2)cc1`, the inhibition was found to be 18%. On the same count and under the same terms, with `O=C(Nc1cccc(F)c1)c1cc2cc(O)ccc2[nH]1` the figure was 21%; with `COC(=O)c1ccc(CNC(=O)c2cc3cc(O)ccc3[nH]2)cc1`, 11%. Regarding `O=C(Nc1cccc(O)c1)c1cc2cc(O)ccc2[nH]1`, the inhibition amounted to 30%. For `COC(=O)Cc1ccc(NC(=O)c2cc3cc(O)ccc3[nH]2)cc1`, the inhibition worked out at 32%. `O=C(NCc1cccc(F)c1)c1cc2cc(O)ccc2[nH]1`: the inhibition came out at 57%. Still for that read-out and setting: with `O=C(NCc1ccc(O)cc1)c1cc2cc(O)ccc2[nH]1` the figure was 54%; with `COc1ccccc1CNC(=O)c1cc2cc(O)ccc2[nH]1`, 21%. Take `C[C@@H](NC(=O)c1cc2cc(O)ccc2[nH]1)c1cccc(O)c1`: the inhibition is 15%.

The target is the same in another assay. As to the kind of experiment: Percent inhibition of human recombinant p60 c-Src tyrosine kinase at 100 uM (inactive).
`O=C(O)c1ccc(CNC(=O)c2cc3cc(O)ccc3[nH]2)cc1`: the inhibition result is “inactive”.

These data come from ChEMBL document CHEMBL1133411, “The design, synthesis and activity of non-ATP competitive inhibitors of pp60(c-src) tyrosine kinase. Part 2: hydroxyindole derivatives” (Bioorg Med Chem Lett, 2000).
